# Measurements from patent US10328075B2, “Method of treatment and compounds for use therein” (Baker Heart and Diabetes Institute, priority 2015, dated 2019).
# Where two headings read alike, the source gives them in different places.
# What was measured:
# hFPR1 = target: T1, hFPR1 (Homo sapiens, UniProt P21462); assay: Akt1/2/3 (Ser473) phosphorylation in hFPR1-FlpIn-CHO cells; format: cell-based
# T1 construct: expressed in transfected cells
# T1 sequence (P21462 1-350): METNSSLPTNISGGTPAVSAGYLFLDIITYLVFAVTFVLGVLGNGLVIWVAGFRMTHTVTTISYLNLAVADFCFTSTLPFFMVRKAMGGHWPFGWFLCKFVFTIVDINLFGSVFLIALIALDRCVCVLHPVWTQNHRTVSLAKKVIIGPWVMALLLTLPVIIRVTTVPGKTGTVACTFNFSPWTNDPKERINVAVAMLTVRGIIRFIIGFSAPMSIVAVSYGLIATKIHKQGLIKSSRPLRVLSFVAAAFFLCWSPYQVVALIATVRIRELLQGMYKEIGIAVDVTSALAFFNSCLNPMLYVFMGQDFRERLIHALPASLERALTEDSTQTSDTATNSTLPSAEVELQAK
# Source text: (§1) cDNDA construct and generation of stable cell lines: cDNA in pcDNA3.1^+ encoding the human formyl peptide receptors (FPR) subtypes, hFPR1, hFPR2 and hFPR3 was obtained from Invitrogen. The sequences for 3 hFPR receptors were amplified by PCR and cloned into the Gateway entry vector, pDONR202™, using the BP clonase enzyme mix, according to the manufactures' instructions (Invitrogen Inc, Carlsbad, Calif., USA). All hFPR receptors constructs in pDONR201™ were subsequently transfected into the pEF5/FRT/V5/dest vector using the LR clonase enzyme mix (Invitrogen). Receptor constructs (pEF5/FRT/V5/dest) were used to transfect FIp-In CHO cells as described previously (Valant C et al., PNAS, 2014). Cells were selected using 500 μg/mL hydromycin to generate cell lines stably expressing each receptor construct. Cells were maintained and cultured in high glucose DMEM supplemented with 10% FBS, 16 mM HEPES and 500 μg/mL hydromycin at 37° C. under a humidified atmosphere containing 5% CO2.
# (§2) In the various assays described below, cells were plated into 96-well transparent cell culture plates at 4×10^4 cells per well, cultured overnight in serum-free media at 37° C. in 5% CO2.
# (§3) Measurement of Akt1/2/3 phosphorylation and Akt 1: The same lysate was used for measurement of Akt1/2/3 phosphorylation (Ser473) and Akt1 (Thr308). Cells were lysed in SureFire lysis buffer and transferred to 384-well opaque proxiplates. Under low-light conditions, a 1:10:40 (v:v:v) dilution of AlphaScreen acceptor beads:Surefire activation buffer:Surefire reaction buffer was prepared and the plate was incubated in the dark at RT for 2 h. Then, a 1:20 (v:v) dilution of AlphaScreen donor beads/dilution was prepared and incubated in the dark at RT for another 2 h, before the fluorescence signal was measured by used of a Fusion-α plate reader (PerkinElmer Life and Analytical Sciences) with standard AlphaScreen settings. Receptor mediated phosphorylation of Akt1/2/3 (Ser473) and Akt1 (Thr308) were determined using the AlphaScreen™ […] SureFire™ kit, as per as per manufacturer's instructions. Data were normalized to the maximal response elicited by 10% (v:v) FBS at the same time point.
# (§4) Data analysis: All data were analysed using GraphPad Prism 6.0 (GraphPad Software, San Deigo, Calif., USA). Where appropriate, concentration-response curves were fitted to derive the maximal agonist effect (Emax), and the ligand potency estimate (pEC50), where Emax is the maximal possible response of the system (not the agonist), basal is the basal level of response in the absence of agonist, and pEC50 is the negative logarithm of the agonist concentration that gives a response halfway between Emax and basal.
# (§5) In the present study, FIp-IN CHO cells and Gateway plasmid were obtained from Invitrogen Inc (Carlsbad, Calif., USA). The sequences for all 3 known human FPRs (hFPR1, hFPR2 and hFPR3) were amplified by PCR and cloned into the Gateway entry vector, pDONR202TM, using the BP clonase enzyme mix, according to the manufacturers' instructions. The hFPR pDONR201TM constructs were subsequently transfected into the pEF5/FRT/V5/dest vector using the LR clonase enzyme mix (Invitrogen). Receptor constructs (pEF5/FRT/V5/dest) were used to transfect FIp-IN CHO cells, as described previously (Valant et al. 2014). Cells were selected using 500 μg/mL hydromycin to generate cell lines stably expressing each human receptor construct. Cells were maintained and cultured in high glucose Dulbecco's modified eagle medium (DMEM) supplemented with 10% fetal bovine serum (FBS, from JRH Biosciences, Lenexa, Kans., USA) and 500 μg/mL hydromycin B (Invitrogen Inc) at 37° C. under a humidified atmosphere containing 5% CO2. Cell were plated into 96-well transparent cell culture plates at 4×10^4 cells per well, cultured overnight in serum-free media at 37° C. in 5% CO2.
# hFPR2 = target: T2, hFPR2 (Homo sapiens, UniProt P25090); assay: Akt1/2/3 (Ser473) phosphorylation in hFPR2-FlpIn-CHO cells; format: cell-based; details: for ΔLog(τ/KA), Akt 1/2/3 (Ser473) phosphorylation, hFPR2-Flpln-CHO: normalized transduction coefficient, reference agonist Cmpd43; for Log(τ/KA), Akt 1/2/3 (Ser473) phosphorylation, hFPR2-Flpln-CHO: transduction coefficient
# T2 construct: expressed in transfected cells
# T2 sequence (P25090 1-351): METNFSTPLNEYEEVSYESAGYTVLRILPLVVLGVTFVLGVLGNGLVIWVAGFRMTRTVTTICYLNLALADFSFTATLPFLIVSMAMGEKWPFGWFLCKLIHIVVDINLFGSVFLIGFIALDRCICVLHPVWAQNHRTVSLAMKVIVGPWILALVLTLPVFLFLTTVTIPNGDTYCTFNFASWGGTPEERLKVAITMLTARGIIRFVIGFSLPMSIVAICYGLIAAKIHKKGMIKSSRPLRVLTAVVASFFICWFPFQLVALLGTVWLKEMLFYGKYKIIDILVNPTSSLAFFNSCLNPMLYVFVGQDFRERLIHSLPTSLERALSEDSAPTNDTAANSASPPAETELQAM
# Source text: as §1, §2, §3, §4, §5
# [1] = Table 3, percentage of Akt1/2/3 phosphorylation elicited by 10% FBS, read-out: Emax (%), Akt 1/2/3 (Ser473), hFPR2-Flpln-CHO
# [2] = Table 8, percent of response elicited by 10% FBS, read-out: Emax, Akt 1/2/3 (Ser473) phosphorylation, hFPR2-Flpln-CHO
SMILES,"Emax (hFPR1; Table 3, percentage of Akt1/2/3 phosphorylation elicited by 10% FBS, read-out: Emax (%), Akt 1/2/3 (Ser473), hFPR1-Flpln-CHO) [%]","EC50 (hFPR1; Table 3, read-out: pEC50, Akt 1/2/3 (Ser473), hFPR1-Flpln-CHO (converted)) [nM]","ΔLog(τ/KA), Akt 1/2/3 (Ser473) phosphorylation, hFPR1-Flpln-CHO (hFPR1; Table 8, normalized transduction coefficient, reference agonist Cmpd43)","Emax (hFPR1; Table 8, percent of response elicited by 10% FBS, read-out: Emax, Akt 1/2/3 (Ser473) phosphorylation, hFPR1-Flpln-CHO) [%]","EC50 (hFPR1; Table 8, read-out: pEC50, Akt 1/2/3 (Ser473) phosphorylation, hFPR1-Flpln-CHO (converted)) [nM]","Log(τ/KA), Akt 1/2/3 (Ser473) phosphorylation, hFPR1-Flpln-CHO (hFPR1; Table 8, transduction coefficient)",Emax (hFPR2; [1]) [%],"EC50 (hFPR2; Table 3, read-out: pEC50, Akt 1/2/3 (Ser473), hFPR2-Flpln-CHO (converted)) [nM]","ΔLog(τ/KA), Akt 1/2/3 (Ser473) phosphorylation, hFPR2-Flpln-CHO (hFPR2; Table 8)",Emax (hFPR2; [2]) [%],"EC50 (hFPR2; Table 8, read-out: pEC50, Akt 1/2/3 (Ser473) phosphorylation, hFPR2-Flpln-CHO (converted)) [nM]","Log(τ/KA), Akt 1/2/3 (Ser473) phosphorylation, hFPR2-Flpln-CHO (hFPR2; Table 8)"
CC(C)C1C(NC(=O)Nc2ccc(Cl)cc2)C(=O)N(c2ccccc2)N1C (stereo not shown) [BIDI-002],13 ± 3,87.1,0.0,13 ± 3,79.4,6.9 ± 0.3,30 ± 6,145,0.0,30 ± 6,158,6.9 ± 0.4
"CSCC[C@H](NC=O)C(=O)N[C@@H](CC(C)C)C(=O)N[C@@H](Cc1ccccc1)C(=O)O [fMLP, N-formyl-Met-Leu-Phe]",,,,,,,13 ± 4,,−2.0 ± 0.2,20 ± 4,,4.9 ± 0.2
